Experimental data as given in patent US7585833B2, “Malodor covering perfumery” (Givaudan Fragrances Corporation, priority 2005, dated 2009).

Tests used:
[1] = odor detection threshold, Table 3; cited from earlier work
[2] = Stability and malodor coverage evaluation of odorants in permanent hair color crème (10% ammonia); set-up: key to malodor coverage rating 1 Week RT / malodor coverage rating 1 Week Oven / malodor coverage rating 6 Weeks RT / malodor coverage rating 6 Weeks Oven / malodor coverage rating 2 Weeks RT / malodor coverage rating 2 Weeks Oven / malodor coverage rating 3 Weeks RT / malodor coverage rating 3 Weeks Oven / malodor coverage rating 4 Weeks RT / malodor coverage rating 4 Weeks Oven / malodor coverage rating 5 Weeks RT / malodor coverage rating 5 Weeks Oven: E: excellent; VG: very good; G: good coverage; key to odorant performance 1 Week RT / odorant performance 1 Week Oven / odorant performance 2 Weeks RT / odorant performance 2 Weeks Oven / odorant performance 3 Weeks RT / odorant performance 3 Weeks Oven / odorant performance 4 Weeks RT / odorant performance 4 Weeks Oven: E=excellent; VG=very good; G=good; F=fair; P=poor; details: for odorant performance 1 Week Oven / odorant performance 1 Week RT / odorant performance 2 Weeks Oven / odorant performance 2 Weeks RT / odorant performance 3 Weeks Oven / odorant performance 3 Weeks RT / odorant performance 4 Weeks Oven / odorant performance 4 Weeks RT: odorant at 0.2% in dye less permanent hair color crème (10% ammonia hydroxide); for odorant performance 1 Week Oven / odorant performance 2 Weeks Oven / odorant performance 3 Weeks Oven / odorant performance 4 Weeks Oven: oven temperature; for stability observation in the formulation: odorant at 0.2% in permanent hair color crème (10% ammonia hydroxide), remark beside the raw material
From the text: The marks E, VG, G stand for excellent, very good and good coverage and are part of a 5 scale rating system. […] Odorants were put up at 0.2% in the formulation, and odorants were subjected to 6 week stability testing at room temperature (R.T.) and […] oven temperature. […] G=good, F=fair; P=poor).

SMILES	ODT (ppb) [1]	odorant performance 1 Week Oven ([2]; 1 week)	odorant performance 1 Week RT ([2]; 1 week, room temperature)	odorant performance 2 Weeks Oven ([2]; 2 weeks)	odorant performance 2 Weeks RT ([2]; 2 weeks, room temperature)	odorant performance 3 Weeks Oven ([2]; 3 weeks)	odorant performance 3 Weeks RT ([2]; 3 weeks, room temperature)	odorant performance 4 Weeks Oven ([2]; 4 weeks)	odorant performance 4 Weeks RT ([2]; 4 weeks, room temperature)	also measured
CC12CCC(CC1)C(C)(C)O2 [1,3,3-trimethyl-2-oxabicyclo[2.2.2]octane]	less than 50 ppb	–	–	–	–	–	–	–	–	–
CC(C)=CCCC(C)C=O (centres unmarked) [2,6-dimethyl-5-heptenal]	less than 50 ppb	–	–	–	–	–	–	–	–	–
CCCCCC(=O)CC [3-octanone]	less than 50 ppb	–	–	–	–	–	–	–	–	–
C=CCOC(=O)COCCC(C)C [ALLYL AMYL GLYCOLATE]	–	G	G	F	G	F	G	F	G	–
O=C(OCc1ccccc1)c1ccccc1O [BENZYL SALICYLATE]	–	G	G	G	G	F	F	F	F	–
CCOC(=O)CC(C)=O [ETHYL ACETOACETATE]	–	F	F	F	F	F	F	F	F	stability observation in the formulation [2]: ETHYL ACETOACETATE (discolors in oven)
CCc1ccc(CC(C)(C)C=O)cc1 [FLORALOZONE]	–	G	G	G	G	G	G	G	G	–
CC(C)CC1CC(C)(O)CCO1 (centres unmarked) [FLOROL]	–	F	F	P	P	P	P	P	P	–
CC1COCc2cc3c(cc21)C(C)(C)C(C)C3(C)C (centres unmarked) [Galaxolide, 1,3,4,6,7,8-Hexahydro-4,6,6,7,8,8-hexamethylcyclopenta-γ-2-benzopyran]	–	–	–	–	–	–	–	–	–	malodor coverage rating 1 Week Oven ([2]; 10% ammonia formulation, 1 week, oven at 37° C.): E; malodor coverage rating 1 Week RT ([2]; 10% ammonia formulation, 1 week, room temperature): E; malodor coverage rating 2 Weeks Oven ([2]; 10% ammonia formulation, 2 weeks, oven at 37° C.): VG; malodor coverage rating 2 Weeks RT ([2]; 10% ammonia formulation, 2 weeks, room temperature): VG; malodor coverage rating 3 Weeks Oven ([2]; 10% ammonia formulation, 3 weeks, oven at 37° C.): G; malodor coverage rating 3 Weeks RT ([2]; 10% ammonia formulation, 3 weeks, room temperature): G; malodor coverage rating 4 Weeks Oven ([2]; 10% ammonia formulation, 4 weeks, oven at 37° C.): G; malodor coverage rating 4 Weeks RT ([2]; 10% ammonia formulation, 4 weeks, room temperature): G; malodor coverage rating 5 Weeks Oven ([2]; 10% ammonia formulation, 5 weeks, oven at 37° C.): G; malodor coverage rating 5 Weeks RT ([2]; 10% ammonia formulation, 5 weeks, room temperature): G; malodor coverage rating 6 Weeks Oven ([2]; 10% ammonia formulation, 6 weeks, oven at 37° C.): G; malodor coverage rating 6 Weeks RT ([2]; 10% ammonia formulation, 6 weeks, room temperature): G
CCCCCCC(C=O)=Cc1ccccc1 [Hexyl cinnamic aldehyde]	–	G	G	G	G	G	G	G	G	stability observation in the formulation [2]: HEXYL CINNAMIC ALDEHYDE (cloudy)
C=CC(C)(O)CCC=C(C)C (centres unmarked) [LINALOOL SYNTHETIC, LINALOOL]	–	G	G	G	G	G	G	G	G	–
CC(C=O)Cc1ccc(C(C)(C)C)cc1 (stereo not drawn) [Lilial, p-t-Butyl-α-methylhydrocinnamic aldehyde]	–	G	G	G	G	G	G	G	G	–
CC1CC=CCCCCCCCCCC(=O)C1 (centres unmarked) [MUSCENONE @ 10% DPG]	–	F	F	F	F	F	F	F	F	–
CCC/C=C/C=O [TRANS-2-HEXENAL @ 10% DPG, TRANS-2-HEXENAL]	–	F	G	F	G	F	G	F	F	–
CC/C=C\CCOC(C)=O [cis-3-hexenyl acetate]	–	G	G	G	G	F	F	F	F	–
CC/C=C\CCOC(=O)OC [cis-3-hexenyl methyl carbonate]	less than 50 ppb	–	–	–	–	–	–	–	–	–
CC/C=C\CCC=O [cis-4-heptenal]	less than 50 ppb	–	–	–	–	–	–	–	–	–
CCOC(=O)CC1(C)OCCO1 [ethyl 2-methyl-1,3-dioxolane-2-acetate]	less than 50 ppb	–	–	–	–	–	–	–	–	–
CCCC(C)C(=O)OCC (centres unmarked) [ethyl 2-methylpentanoate]	less than 50 ppb	–	–	–	–	–	–	–	–	–
CCOC(=O)CC(C)C [ethyl 3-methylbutanoate]	less than 50 ppb	–	–	–	–	–	–	–	–	–
CCCC(=O)OCC [ethyl butyrate]	less than 50 ppb	–	–	–	–	–	–	–	–	–
CCCCCC(=O)OCC [ethyl hexanoate]	less than 50 ppb	–	–	–	–	–	–	–	–	–
CCOC(=O)CC [ethyl propionate]	less than 50 ppb	–	–	–	–	–	–	–	–	–
